The values below are quoted from earlier work in US20210368801A1, “COMPOSITION FOR PREPARING HYPOCHLOROUS ACID WATER, AND TEST PAPER FOR DETERMINING HYPOCHLOROUS ACID WATER” (Wabian Co., Ltd., priority 2020, published 2021).

For orientation: LD50 means the dose at which mortality reaches 50%.

The test system of series [1] is coronavirus. The conditions noted are these: as an effective chlorine amount, according to NITE.
For series [2] the following is noted: electrolytic type; http://www.jsia.gr.jp/data/naclo.pdf.

As to `OCl` [hypochlorous acid], in series [1], the “effective concentration for the coronavirus” value is 35 ppm.
For `OCl` [sodium hypochlorite], the LD50 in series [2] is 1 g/kg.
